How the values were obtained:
[1] = system: acute liver damage induced by dimethylnitrosamine; experiment: protective effect on acute liver damage associated with centrilobular necrosis, dimethylnitrosamine model; format: in vivo, mouse (dd); settings: dimethylnitrosamine 0.05 ml/kg i.p.; 100 mg/kg oral 6 h before; 15 h after
Protocol: (§1) Bromobenzene (hereinafter abbreviated as BB), Dimethylnitrosamine (hereinafter abbreviated as DMN) and chloroform (hereinafter abbreviated as CF) resemble carbon tetrachloride in inducing liver damage associated with centrilobular necrosis.
(§2) Test compound or anethol trithion was orally administered to animal at the dose of 100 mg/kg. Twenty four hours after it (in the case of dimethylnitrosamine, exceptionally fifteen hours after it) the animals were sacrificed and blood samples were collected. Indices of hepatotoxicity adoptable in each chemical were measured, from which the efficacy of the compound was evaluated.
DMN male mouse 0.05 intraper-

[2] = system: alcohol metabolic function of liver; experiment: effect on concentration of ethyl alcohol in the blood; format: in vivo, mouse; settings: 250 mg/kg oral 6 h before ethanol 1,000 mg/kg
Protocol: The test compounds are dissolved or suspended in olive oil and administered orally at the dose of 250 mg/kg to the mice. After 6 hours, 1,000 mg/kg of ethyl alcohol was given orally. Blood was taken in a capillary from caudal vein at the time indicated in the results. The plasma was obtained by centrifugation. The concentration of ethyl alcohol in the plasma was measured by FID type gas liquid chromatography. Five mice were used for each group.

[3] = system: acute liver damage induced by allyl alcohol; experiment: protective effect on acute liver damage associated with periportal necrosis, allyl alcohol model; format: in vivo, mouse (dd strain); settings: 250 mg/kg oral 6 h before allyl alcohol 0.075 ml/kg oral; 24 h after
Protocol: The compound of this invention or anethol trithion was orally administered to the male mouse (4 week/old, dd strain) at the dose of 250 mg/kg. Six hours after it, allyl alcohol was orally administered at the dose of 0.075 ml/kg. Twenty four hours after it, the animals were sacrificed to collect blood samples.

[4] = acute oral toxicity to male mice (LD50); settings: mouse, in vivo
Excerpt: Further, these compounds have no detrimental effects on test animals administered therewith, so far as the doses thereof are within an ordinary administration range.

[5] = system: fatty liver induced by carbon tetrachloride; experiment: therapeutic effect on fatty liver, carbon tetrachloride model; format: in vivo, rat (SD strain)
Protocol: Carbon tetrachloride also induces fatty liver, but the picture of disease differs from the case of ethionine-induced fatty liver. Carbon tetrachloride is generally considered to damage microsome and thereby to inhibit protein synthesis and induce fatty liver.
Carbon tetrachloride was subcutaneously administered to 36 week-old male rats (SD strain) for 4 days at the dose of 1 ml/kg. The treated animals were left for 3 days after the last administration to maximize the manifestation of fatty liver.
Administration of Compound 4 was commenced on the fourth day after the administration of carbon tetrachloride was completed. It was orally given everyday for 10 days at the dose of 50 or 250 mg/kg. On the 11th day, the animals were sacrificed by exsanguination. The therapeutic effect was evaluated by determining the content of lipid in the liver (triglyceride and total lipid) and examining the histopathological changes. Triglyceride and total lipid were determined colorimetrically by chromotropic acid method and Bragdon's oxidation method, respectively.
Indices for the histopathological change is as follows: […]

[6] = system: glucose metabolic function of liver; experiment: effect on glucose metabolism (blood sugar); format: in vivo, mouse; settings: for Blood Sugar: 250 mg/kg oral 6 h before glucose 4.0 g/kg
Protocol: Methods: The test compounds dissolved in olive oil and administered orally at the dose of 250 mg/kg to the mice. After 6 hours, 4.0 g/kg of glucose was orally administered. The same amount of glucose was given to the control animals. 0.02 ml of blood was taken from caudal vein of the mice at 30, 60, 90 and 120 min. after glucose administration. Blood sugar was measured by the procedure of Somogyi-Nelson. Number of animals used was 5 to 6 mice for each treatment.

[7] = system: acute liver damage induced by chloroform; experiment: protective effect on acute liver damage associated with centrilobular necrosis, chloroform model; format: in vivo, mouse (dd); settings: chloroform 0.2 ml/kg oral; 100 mg/kg oral 6 h before; 24 h after
Protocol: as §1, §2
CF male mouse 0.2 oral p-GPT activity

[8] = system: acute liver damage induced by D-galactosamine; experiment: protective effect on acute hepatitis with mesenchymal reaction and discrete lobular necrosis, D-galactosamine model; format: in vivo, rat (SD strain); settings: 250 mg/kg oral 6 h before D-galactosamine i.p.
Protocol: D-Galactosamine is a compound which induces a discrete lobular necrosis associated with mesenchymal reaction similar to the change observed in human viral hepatitis, so that it is frequently used in producing a model for viral hepatitis.
The compound of this invention or anethol trithion was administered orally to the male rat (SD strain) at the dose of 250 mg/kg. Six hours after it, D-galactosamine was intraperitoneally administered at the dose of 600 mg/kg. Four hours after it, an additional 300 mg/kg was administered intraperitoneally. Eight hours after it, the animals were sacrificed to collect the blood samples. P-GPT activity and triglyceride in the liver were measured to evaluate the effect of the compound of this invention.

[9] = system: fatty liver induced by ethionine; experiment: effect on fatty liver, ethionine model; format: in vivo, mouse (dd-strain); settings: 250 mg/kg oral
Excerpt: There are known many factors inducing fatty liver. But, the fatty liver is grouped into a couple of patterns from the mechanism of lipid accumulation or metabolism of lipoprotein in the liver. Ethionine is a typical example which induces first pattern of fatty liver. It inhibits RNA and protein synthesis and destroys polysome of the liver cell. Fatty liver is induced by inhibition of the protein synthesis and disturbance of lipoprotein secretion.
Usually, fatty liver is closely related to the accumulation of triglyceride in the liver. In the present example, the degree of fatty liver and protective or therapeutic effect on the fatty liver was evaluated by measurement of triglyceride content in the liver.
The compounds of this invention and methionine were independently dissolved or suspended into olive oil and administered orally to the male mouse (4 week-old dd-strain) at the dose of 250 mg/kg. One hour before it, simultaneously with it or one hour after it, ethionine dissolved in equimolar NaOH solution was administered intraperitoneally at the dose of 200 mg/kg. Twenty four hours after the administration of ethionine, the animals were sacrificed and triglyceride content in the liver was determined by chromotropic acid method.

[10] = 50 mg/kg oral everyday for 10 days

Compound: CC(C)OC(=O)C(C(=O)OC(C)C)=C1SC=CS1 [Compound 4, diisopropyl 1,3-dithiol-2-ylidene malonate]
- BSP [1]: 10 ± 2.0 mg/dL
- p-GPT [1]: 204 ± 44 Karmen unit
- Concentration of Ethyl alcohol in Plasma ([2]; 0 min): 25 ± 12 ppm
- Concentration of Ethyl alcohol in Plasma ([2]; 5 min): 582 ± 143 ppm
- Concentration of Ethyl alcohol in Plasma ([2]; 15 min): 468 ± 30 ppm
- Concentration of Ethyl alcohol in Plasma ([2]; 30 min): 220 ± 87 ppm
- Concentration of Ethyl alcohol in Plasma ([2]; 60 min): 29 ± 17 ppm
- Concentration of Ethyl alcohol in Plasma ([2]; 120 min): not detected
- BSP [3]: 17 ± 3.2
- LD50 [4]: 3120 mg/kg
- Total lipid [5, 10]: 78.6 ± 16.8 mg/g-liver
- Triglyceride [5, 10]: 37.6 ± 8.5 mg/g-liver
- Total lipid ([5]; 250 mg/kg, 10 days): 64.1 ± 10.2 mg/g-liver
- Triglyceride ([5]; 250 mg/kg, 10 days): 23.6 ± 7.0 mg/g-liver
- Blood Sugar, percent of 0 min value ([6]; 0 min): 100%
- Blood Sugar ([6]; 0 min): 123 ± 10.9 mg/dL
- Blood Sugar ([6]; 30 min): 282 ± 25.2 mg/dL
- Blood Sugar ([6]; 60 min): 236 ± 19.7 mg/dL
- Blood Sugar ([6]; 90 min): 159 ± 18.3 mg/dL
- Blood Sugar ([6]; 120 min): 138 ± 14.4 mg/dL
- Blood Sugar, percent of 0 min value ([6]; 30 min): 229%
- Blood Sugar, percent of 0 min value ([6]; 60 min): 192%
- Blood Sugar, percent of 0 min value ([6]; 90 min): 129%
- Blood Sugar, percent of 0 min value ([6]; 120 min): 112%
- p-GPT [7]: 58 ± 15 Karmen unit
- Triglyceride in the liver [8]: 4.4 ± 0.68 mg/g
- p-GPT [8]: 51 ± 15 Karmen unit
- Triglyceride ([9]; 1 hr after ethionine 200 mg/kg i.p.): 10.0 ± 1.15 mg/g-liver
- Triglyceride ([9]; 1 hr before ethionine 200 mg/kg i.p.): 9.1 ± 1.15 mg/g-liver
- Triglyceride ([9]; simultaneously with (0 hr) ethionine 200 mg/kg i.p.): 5.4 ± 0.61 mg/g-liver

Reference: patent publication US4118506A, “Pharmaceutical compositions containing 1,3-dithiol-2-ylidene malonate derivatives” (Nihon Nohyaku Co., Ltd., priority 1976, dated 1978)
